The record followed here is ChEMBL document CHEMBL4049416, “Synthesis and anti-cancer activities of new sulfonamides 4-substituted-triazolyl nucleosides” (Bioorg Med Chem Lett, 2017).

Molecules are shown by their SMILES. The source made the active and inactive calls. No cut-off for these calls is given here. Some results are limits rather than exact numbers.

In data set [1] the test system is RCC4. Description: Anticancer activity against human RCC4 cells after 48 hrs by XTT assay. Format: functional, cell-based. The note with it: RCC4, 48 h.
In data set [2] the test system is MDA-MB-231. The data set can be described thus: Anticancer activity against human MDA-MB-231 cells after 48 hrs by XTT assay. The settings on record: MDA-MB-231, 48 h. It is filed as functional, cell-based.
The nature of data set [3]: Solubility of the compound. It is filed as physicochemical.
Data set [4] in a line: Micelle aggregation by the compound.
Data set [5] can be described thus: Potency index, ratio of AICAR IC50 to compound IC50 for human RCC4 cells. It is filed as functional.
The subject of data set [6] is MDA-MB-231. Description: Potency index, ratio of AICAR IC50 to compound IC50 for human MDA-MB-231 cells. It is filed as functional.
The subject of data set [7] is RCC4. The data set can be described thus: Anticancer activity against human RCC4 cells at 50 uM after 48 hrs by XTT assay. It is filed as functional, cell-based.
For data set [8], the system named is MDA-MB-231. Description: Anticancer activity against human MDA-MB-231 cells at 50 uM after 48 hrs by XTT assay. Format: functional, cell-based.
Data set [9] has as its system RCC4. Description: Induction of apoptosis in human RCC4 cells assessed as PARP cleavage at 20 uM after 48 hrs by Western blot method. It is filed as functional, cell-based.
For data set [10], the system named is RCC4. The data set can be described thus: Induction of autophagy in human RCC4 cells assessed as increase in LC3 lipidation at 20 uM after 48 hrs by Western blot method. It is filed as functional, cell-based.
Data set [11] has as its system RCC4. Description: Induction of autophagy in human RCC4 cells assessed as increase in LC3 cleavage at 20 uM after 48 hrs by Western blot method. Format: functional, cell-based.
In data set [12] the test system is RCC4. Description: Induction of autophagy in human RCC4 cells assessed as increase in LC3 conversion at 1 mM after 48 hrs by Western blot method. It is filed as functional, cell-based.

Turning to `CC(=O)OC[C@H]1O[C@@H](n2cc(CN(c3ccccc3)S(C)(=O)=O)nn2)[C@H](OC(C)=O)[C@@H]1OC(C)=O`, the IC50 in the data set with RCC4 [1] is 180 µM; in the data set with MDA-MB-231 [2], 250 µM.
The like results for `COc1cccc(N(Cc2cn([C@@H]3O[C@H](COC(C)=O)[C@@H](OC(C)=O)[C@H](OC(C)=O)[C@H]3OC(C)=O)nn2)S(C)(=O)=O)c1` were, in that order, 200 µM and 220 µM.
The corresponding values for `CS(=O)(=O)N(Cc1cn([C@@H]2O[C@H](CO)[C@@H](O[C@H]3O[C@H](CO)[C@@H](O)[C@H](O)[C@H]3O)[C@H](O)[C@H]2O)nn1)c1ccc(C#N)cc1` are 250 µM and 250 µM.
In the case of `COC(=O)C(C)(C)N(Cc1cn([C@@H]2O[C@H](COC(C)=O)[C@@H](OC(C)=O)[C@H]2OC(C)=O)nn1)S(C)(=O)=O`, the figures for the IC50 in the data set on RCC4 [1] and in the data set with MDA-MB-231 [2] were 50 µM and 240 µM, respectively.
In the case of `CC(=O)OC[C@H]1O[C@@H](n2cc(CN(c3ccc(C#N)cc3)S(C)(=O)=O)nn2)[C@H](OC(C)=O)[C@@H]1OC(C)=O`, the half-inhibitory concentration (IC50) with RCC4 [1] is 235 µM; in the data set with MDA-MB-231 [2] it was 100 µM.
The corresponding values for `CCS(=O)(=O)N(Cc1cn([C@@H]2O[C@H](COC(C)=O)[C@@H](OC(C)=O)[C@H]2OC(C)=O)nn1)c1ccc(Cl)cc1` are 250 µM and 250 µM.
Regarding `CCCCCCCCCCCCCCN(Cc1cn([C@@H]2O[C@H](COC(C)=O)[C@@H](OC(C)=O)[C@H]2OC(C)=O)nn1)S(C)(=O)=O`, the IC50 with RCC4 [1] stood at 29 µM; with MDA-MB-231 [2], 31 µM. For the same compound, in data set [3], the solubility result is given as “Soluble”. Also, in [4], the result was inactive.
The like results for `CCCCN(Cc1cn([C@@H]2O[C@H](COC(C)=O)[C@@H](OC(C)=O)[C@H]2OC(C)=O)nn1)S(C)(=O)=O` were, in that order, 250 µM, 225 µM, “Soluble” and “inactive”.
The like results for `CCCCCCN(Cc1cn([C@@H]2O[C@H](COC(C)=O)[C@@H](OC(C)=O)[C@H]2OC(C)=O)nn1)S(C)(=O)=O` were, in that order, 140 µM, 225 µM, “Soluble” and “inactive”.
In the case of `CC(=O)OC[C@H]1O[C@@H](n2cc(CN(c3ccc(C#N)cc3)S(C)(=O)=O)nn2)[C@@H](OC(C)=O)[C@@H](OC(C)=O)[C@@H]1OC(C)=O`, the IC50 was found to be 240 µM in the data set on RCC4 [1] and 230 µM in the data set with MDA-MB-231 [2].
Turning to `CC(=O)OC[C@H]1O[C@@H](n2cc(CN(c3ccc(C)cc3)S(=O)(=O)c3ccccc3)nn2)[C@H](OC(C)=O)[C@@H](OC(C)=O)[C@@H]1OC(C)=O`, the IC50 is 130 µM in the data set on RCC4 [1] and 180 µM in the data set with MDA-MB-231 [2].
For the compound `CCS(=O)(=O)N(Cc1cn([C@H]2O[C@H](COC(C)=O)[C@@H](O[C@@H]3O[C@H](COC(C)=O)[C@H](OC(C)=O)[C@H](OC(C)=O)[C@H]3OC(C)=O)[C@H](OC(C)=O)[C@H]2OC(C)=O)nn1)c1ccc(Cl)cc1`, the concentration for half-maximal inhibition (IC50) in the data set on RCC4 [1] amounted to 160 µM; in the data set on MDA-MB-231 [2] it was 150 µM.
As for `CS(=O)(=O)N(Cc1cn([C@@H]2O[C@H](CO)[C@@H](O)[C@H]2O)nn1)c1ccc(C#N)cc1`, the values for the IC50 in the data set on RCC4 [1] and in the data set with MDA-MB-231 [2] were 250 µM and above 250 µM, respectively.
The like results for `CC(=O)OC[C@H]1O[C@@H](n2cc(CN(c3ccc(Cl)cc3)S(=O)(=O)c3ccccc3)nn2)[C@H](OC(C)=O)[C@@H]1OC(C)=O` were, in that order, 250 µM and 250 µM.
As to `CC(=O)OC[C@H]1O[C@@H](O[C@H]2[C@H](OC(C)=O)[C@@H](OC(C)=O)[C@@H](n3cc(CN(c4ccc(C#N)cc4)S(C)(=O)=O)nn3)O[C@@H]2COC(C)=O)[C@H](OC(C)=O)[C@@H](OC(C)=O)[C@H]1OC(C)=O`, the IC50 with RCC4 [1] amounted to 50 µM; with MDA-MB-231 [2], 70 µM.
The corresponding values for `COC(=O)CN(Cc1cn([C@@H]2O[C@H](COC(C)=O)[C@@H](OC(C)=O)[C@H]2OC(C)=O)nn1)S(C)(=O)=O` are 125 µM and 250 µM.
The like results for `CC(=O)OC[C@H]1O[C@@H](n2cc(CN(c3ccc(C)cc3)S(=O)(=O)c3ccccc3)nn2)[C@H](OC(C)=O)[C@@H]1OC(C)=O` were, in that order, 230 µM and 205 µM.
For the compound `CCS(=O)(=O)N(Cc1cn([C@@H]2O[C@H](COC(C)=O)[C@@H](OC(C)=O)[C@H](OC(C)=O)[C@H]2OC(C)=O)nn1)c1ccc(Cl)cc1`, the half-inhibitory concentration (IC50) with RCC4 [1] and in the data set on MDA-MB-231 [2] was above 250 µM throughout.
Consider `CS(=O)(=O)N(Cc1cn([C@@H]2O[C@H](CO)[C@@H](O)[C@H](O)[C@H]2O)nn1)c1ccc(C#N)cc1`, for which the values for the 50% inhibitory concentration (IC50) in the data set on RCC4 [1] and with MDA-MB-231 [2] were 200 µM and 185 µM, respectively.
The like results for `COC(=O)C(C)(C)N(Cc1cn([C@@H]2O[C@H](COC(C)=O)[C@@H](OC(C)=O)[C@H](OC(C)=O)[C@H]2OC(C)=O)nn1)S(C)(=O)=O` were, in that order, 240 µM and 225 µM.
Turning to `CC(=O)OC[C@H]1O[C@@H](n2cc(CN(c3ccccc3)S(=O)(=O)c3ccccc3)nn2)[C@H](OC(C)=O)[C@@H]1OC(C)=O`, the 50% inhibitory concentration (IC50) amounted to 150 µM in the data set with RCC4 [1] and 100 µM in the data set on MDA-MB-231 [2].
Take `CC(=O)OC[C@H]1O[C@@H](n2cc(CN(c3ccc(C#N)cc3)S(C)(=O)=O)nn2)[C@H](OC(C)=O)[C@@H](OC(C)=O)[C@@H]1O[C@H]1O[C@H](COC(C)=O)[C@@H](OC(C)=O)[C@H](OC(C)=O)[C@H]1OC(C)=O`: the half-inhibitory concentration (IC50) in the data set on RCC4 [1] and with MDA-MB-231 [2] was 230 µM each time.
On to `CCN(CC)CCNC(=O)c1c(C)[nH]c(/C=C2\C(=O)Nc3ccc(F)cc32)c1C` [SUNITINIB], for which the results for the 50% inhibitory concentration (IC50) in the data set with RCC4 [1] and with MDA-MB-231 [2] were 4 µM and 6 µM, respectively.
The like results for `CCS(=O)(=O)N(Cc1cn([C@@H]2O[C@H](COC(C)=O)[C@@H](OC(C)=O)[C@H](OC(C)=O)[C@H]2OC(C)=O)nn1)c1ccccc1` were, in that order, 175 µM and 155 µM.
For the compound `COc1cccc(N(Cc2cn([C@@H]3O[C@H](COC(C)=O)[C@@H](OC(C)=O)[C@H]3OC(C)=O)nn2)S(C)(=O)=O)c1`, the values for the IC50 in the data set with RCC4 [1] and in the data set with MDA-MB-231 [2] were 190 µM and 160 µM, respectively.
Take `CS(=O)(=O)N(Cc1cn([C@H]2O[C@H](CO)[C@@H](O[C@@H]3O[C@H](CO)[C@H](O)[C@H](O)[C@H]3O)[C@H](O)[C@H]2O)nn1)c1ccc(C#N)cc1`: the results for the concentration for half-maximal inhibition (IC50) in the data set with RCC4 [1] and with MDA-MB-231 [2] were 120 µM and 250 µM, respectively.
For the compound `COC(=O)CN(Cc1cn([C@@H]2O[C@H](COC(C)=O)[C@@H](OC(C)=O)[C@H](OC(C)=O)[C@H]2OC(C)=O)nn1)S(C)(=O)=O`, the IC50 with RCC4 [1] and in the data set with MDA-MB-231 [2] was above 250 µM throughout.
On to `CCS(=O)(=O)N(Cc1cn([C@H]2O[C@H](CO)[C@@H](O[C@@H]3O[C@H](CO)[C@H](O)[C@H](O)[C@H]3O)[C@H](O)[C@H]2O)nn1)c1ccc(Cl)cc1`, for which the IC50 in the data set on RCC4 [1] is 200 µM; in the data set on MDA-MB-231 [2], 215 µM.
The like results for `CC(=O)OC[C@H]1O[C@@H](n2cc(CN(c3ccc(Cl)cc3)S(=O)(=O)c3ccccc3)nn2)[C@H](OC(C)=O)[C@@H](OC(C)=O)[C@@H]1OC(C)=O` were, in that order, 115 µM and 135 µM.
The corresponding values for `CC(=O)OC[C@H]1O[C@@H](n2cc(CN(c3ccc(C#N)cc3)S(C)(=O)=O)nn2)[C@H](OC(C)=O)[C@@H](OC(C)=O)[C@@H]1OC(C)=O` are 120 µM and 215 µM.
Consider `CCCCCCCCCCCCCCCCN(Cc1cn([C@@H]2O[C@H](COC(C)=O)[C@@H](OC(C)=O)[C@H]2OC(C)=O)nn1)S(C)(=O)=O`, for which the values for the IC50 in the data set with RCC4 [1] and in the data set with MDA-MB-231 [2] were 13 µM and 15 µM, respectively. Moreover, the results for the “Ratio IC50” value (in [5]; in the data set on MDA-MB-231 [6]) were 19 and 66, respectively. For the same compound, the outcome in the data set with RCC4 [7], with MDA-MB-231 [8], with RCC4 [9], in the data set with RCC4 [10] and in the data set with RCC4 [11] was Active. Moreover, in data set [3], the solubility entry is “Soluble”. Besides, the result in [4] was inactive.
As to `NC(=O)c1ncn([C@@H]2O[C@H](CO)[C@@H](O)[C@H]2O)c1N` [ACADESINE], the 50% inhibitory concentration (IC50) in the data set with RCC4 [1] is 250 µM; in the data set on MDA-MB-231 [2], 1000 µM. Moreover, the outcome with RCC4 [12] was Active.
`CC(=O)OC[C@H]1O[C@@H](n2cc(CN(c3ccc(C#N)cc3)S(C)(=O)=O)nn2)[C@H](OC(C)=O)[C@@H](OC(C)=O)[C@H]1OC(C)=O`: the IC50 with RCC4 [1] amounted to 170 µM; with MDA-MB-231 [2], 100 µM.
